Data taken from patent US10561143B2, “Fungicidal composition having synergistic effect” (JIANGSU HUIFENG AGROCHEMICAL CO., LTD., priority 2013, dated 2020).
≈ marks a conversion by molar mass, not a printed value. Where two headings read alike, the source gives them in different places.

How the values were obtained:
[1] = test system: late blight pathogens of potato; experiment: whole plant or invertebrate; format: in vivo
[2] = test system: downy mildew pathogens of grape; experiment: Toxicity test on downy mildew pathogens of grape (disease index and control effect on whole grape plants, EC50 and co-toxicity coefficient)
[3] = Table 9, series with picoxystrobin
[4] = Table 6, series with fluopicolide

Compound: O=C(Nc1ccccc1-c1ccc(Cl)cc1)c1cccnc1Cl [Boscalid]
- EC50 ([1]; Phytophthora infestans): 6.31 µg/mL (≈ 18.4 µM)
- EC50 [2]: 11.6 µg/mL (≈ 33.8 µM)

Compound: CSC1=N[C@@](C)(c2ccccc2)C(=O)N1Nc1ccccc1 [Fenamidone]
- EC50 ([1]; Phytophthora infestans): 6.58 µg/mL (≈ 21.1 µM)
- EC50 [2]: 12.8 µg/mL (≈ 41 µM)

Compound: COC(=O)N(OC)c1ccccc1COc1ccn(-c2ccc(Cl)cc2)n1 [pyraclostrobin]
- EC50 ([1]; Phytophthora infestans): 5.28 µg/mL (≈ 13.6 µM)
- EC50 [2]: 10.7 µg/mL (≈ 27.6 µM)

Compound: C[C@@]1(c2ccc(Oc3ccccc3)cc2)OC(=O)N(Nc2ccccc2)C1=O (racemic) [Famoxadone]
- EC50 [2]: 13.8 µg/mL (≈ 36.9 µM)

Compound: CO/C=C(/C(=O)OC)c1ccccc1COc1cccc(C(F)(F)F)n1 [Picoxystrobin]
- EC50 [2, 3]: 15.31 µg/mL (≈ 41.7 µM)

Compound: CCC(C)(NC(=O)c1cc(Cl)c(C)c(Cl)c1)C(=O)CCl (stereo not drawn) [Zoxamide]
- EC50 ([1]; Phytophthora infestans): 6.21 µg/mL (≈ 18.4 µM)
- EC50 [2]: 11.5 µg/mL (≈ 34.1 µM)

Compound: O=C(NCc1ncc(C(F)(F)F)cc1Cl)c1c(Cl)cccc1Cl [Fluopicolide]
- EC50 [2, 4]: 15.32 µg/mL (≈ 39.9 µM)

Compound: OC(Cc1ccccc1Cl)(Cn1nc[nH]c1=S)C1(Cl)CC1 (stereo not drawn) [Prothioconazole]
- EC50 [2]: 13.3 µg/mL (≈ 38.5 µM)

Compound: CC(C)OC(=O)N[C@H](C(=O)N[C@H](C)c1nc2ccc(F)cc2s1)C(C)C [Benthiavalicarb-isopropyl]
- EC50 ([1]; Phytophthora infestans): 6.73 µg/mL (≈ 17.6 µM)
- EC50 [2]: 10.8 µg/mL (≈ 28.2 µM)

Compound: O=[N+]([O-])c1cc(C(F)(F)F)c(Cl)c([N+](=O)[O-])c1Nc1ncc(C(F)(F)F)cc1Cl [Fluazinam]
- EC50 [2]: 11.2 µg/mL (≈ 24.2 µM)

Compound: O=c1[nH]sc2ccccc12 [Benziothiazolinone]
- EC50 ([1]; Table 11, series with pyraclostrobin): 6.89 µg/mL (≈ 45.6 µM)
- EC50 ([1]; Table 12, series with boscalid): 5.58 µg/mL (≈ 36.9 µM)
- EC50 ([1]; Table 13, series with benthiavalicarb-isopropyl): 6.22 µg/mL (≈ 41.1 µM)
- EC50 ([1]; Table 14, series with zoxamide): 5.89 µg/mL (≈ 39 µM)
- EC50 ([1]; Table 15, series with fenamidone): 6.12 µg/mL (≈ 40.5 µM)
- EC50 ([2]; Table 1, series with benthiavalicarb-isopropyl): 8.92 µg/mL (≈ 59 µM)
- EC50 ([2]; Table 2, series with zoxamide): 9.41 µg/mL (≈ 62.2 µM)
- EC50 ([2]; Table 3, series with prothioconazole): 10.05 µg/mL (≈ 66.5 µM)
- EC50 ([2]; Table 4, series with boscalid): 9.46 µg/mL (≈ 62.6 µM)
- EC50 ([2]; Table 5, series with fenamidone): 10.59 µg/mL (≈ 70 µM)
- EC50 [2, 4]: 12.17 µg/mL (≈ 80.5 µM)
- EC50 ([2]; Table 7, series with famoxadone): 11.36 µg/mL (≈ 75.1 µM)
- EC50 ([2]; Table 8, series with pyraclostrobin): 11.85 µg/mL (≈ 78.4 µM)
- EC50 [2, 3]: 14.18 µg/mL (≈ 93.8 µM)

Compound: Cl.O=c1[nH]sc2ccccc12 [Benziothiazolinone hydrochloride]
- EC50 ([2]; Table 10, series with fluazinam): 12.87 µg/mL
